Residue numbers refer to the chain shown, from its start. Like-named read-outs stand apart in the source and are kept apart here.
Experiments:
hAR = biological target: T1, hAR (Homo sapiens, UniProt P10275); assay: Competitive binding of 3H-DHT to baculovirus/Sf9 generated hAR extracts; settings: one hour at 4° C., mean of multiple tests
T1 sequence (P10275 1-920): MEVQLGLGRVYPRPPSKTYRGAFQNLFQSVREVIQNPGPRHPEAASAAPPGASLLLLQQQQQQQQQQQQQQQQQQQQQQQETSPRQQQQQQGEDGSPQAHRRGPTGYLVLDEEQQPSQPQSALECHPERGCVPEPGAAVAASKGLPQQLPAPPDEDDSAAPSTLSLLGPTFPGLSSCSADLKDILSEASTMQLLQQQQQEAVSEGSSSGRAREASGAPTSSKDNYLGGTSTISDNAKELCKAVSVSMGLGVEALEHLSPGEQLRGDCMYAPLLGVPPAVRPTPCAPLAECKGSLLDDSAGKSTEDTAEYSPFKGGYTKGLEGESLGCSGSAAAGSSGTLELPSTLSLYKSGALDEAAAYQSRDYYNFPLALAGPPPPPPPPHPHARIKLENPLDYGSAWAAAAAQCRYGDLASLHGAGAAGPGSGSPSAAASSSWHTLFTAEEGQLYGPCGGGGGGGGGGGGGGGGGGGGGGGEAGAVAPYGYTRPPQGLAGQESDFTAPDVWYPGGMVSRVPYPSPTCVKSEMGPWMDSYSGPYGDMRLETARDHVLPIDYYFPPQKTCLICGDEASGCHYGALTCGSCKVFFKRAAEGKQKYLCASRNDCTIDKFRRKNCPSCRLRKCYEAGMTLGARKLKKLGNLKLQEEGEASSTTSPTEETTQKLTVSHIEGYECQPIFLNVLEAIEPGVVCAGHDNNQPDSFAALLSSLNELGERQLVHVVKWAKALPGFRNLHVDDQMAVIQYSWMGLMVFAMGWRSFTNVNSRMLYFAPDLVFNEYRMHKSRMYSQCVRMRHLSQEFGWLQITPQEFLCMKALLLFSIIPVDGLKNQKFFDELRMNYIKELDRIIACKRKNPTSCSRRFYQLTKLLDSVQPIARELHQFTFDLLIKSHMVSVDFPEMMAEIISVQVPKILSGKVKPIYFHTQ
Method: The description below describes how the assay was carried out.
Competitive binding analysis was performed on baculovirus/Sf9 generated hAR extracts in the presence or absence of different concentrations of test agent and a fixed concentration of ^3H-dihydrotestosterone (^3H-DHT) as tracer. This binding assay method is a modification of a protocol previously described (Liao S., et. al. J. Steroid Biochem. 20:11-17 1984). Briefly, progressively decreasing concentrations of compounds are incubated in the presence of hAR extract (Chang et al. P.N.A.S. Vol. 89, pp. […], 1992), hydroxylapatite, and 1 nM^3H-DHT for one hour at 4° C. Subsequently, the binding reactions are washed three times to completely remove excess unbound ^3H-DHT. hAR bound ^3H-DHT levels are determined in the presence of compounds (i.e. competitive binding) and compared to levels bound when no competitor is present (i.e. maximum binding). Compound binding affinity to the hAR is expressed as the concentration of compound at which one half of the maximum binding is inhibited.

androgen receptor = biological target: T2, androgen receptor (Homo sapiens, UniProt P10275); assay: AR Antagonist Cell Assay (MDA-MB453-MMTV clone 54-19, luciferase reporter); assay type: cell-based; settings: inhibition of induction by DHT (final concentration at 100 μM), 17 hr, compound 0.32-1000 nM, mean of multiple tests
T2 sequence (P10275 1-920 Q868H): T1 sequence (P10275 1-920) with Q868H
Method: The compounds ability to antagonize the effects of androgen on the androgen receptor were determined in a whole cell assay as described immediately below.
Experimental Procedure for AR Antagonist Cell Assay
This cell line is a stable transfected cell line with MDA-MB453 cell background (a human breast tumor cell line expressing androgen receptor). A MMTV minimal promoter containing ARE was first cloned in front of a firefly luciferase reporter gene. Then the cascade was cloned into transfection vector pUV120puro. […] Puromycin resistant stable cell line was selected.
Cell Culture Media and Reagents:
Plating medium: DMEM (phenol red free), 10% charcoal treated HyClone serum, 1% L-glutamine
Assay medium: DMEM (phenol red free), 1% charcoal treated HyClone serum, 1% L-glutamine, 1% penicillin/streptomycin
Cells are maintained in culture medium, splitting cells when they reach 80-90% confluence
To test compounds, 10,000 cells/well are plated to opaque 96 cell culture plate in 100 ul/well plating medium, culture for overnight at 37° C. in cell culture incubator
Add 10 ul/well freshly prepared DHT (final concentration at […]) to each well, incubate at 37° C. for 17 hr (overnight)
Add 50 ul/well 3× luciferase buffer, incubate at room temperature for 5 minutes, then count on Luminometer
The results are reported as the mean of multiple tests described below (the numbers of tests are indicated in the footnote). N.D. denotes that the compound was not tested.

[1] = concentration at which one half of maximum binding of 1 nM 3H-DHT to hAR is inhibited, read-out: IC50
[2] = IC50, concentration at which one half of maximum binding of 1 nM 3H-DHT to hAR is inhibited

C[C@@H](c1ccccc1)N1CC(C)(C)C(Oc2ccc(C#N)c(C(F)(F)F)c2)C1=O (mixture of isomers) [Example 69, (+)-4-[4,4-Dimethyl-2-oxo-1-(1-phenyl-ethyl)-pyrrolidin-3-yloxy]-2-trifluoromethyl-benzonitrile]
IC50 (hAR; [1]): 258 nM | IC50 (androgen receptor; read-out: IC50): 331 nM

COC(=O)c1cccc(CN2CC(C)(C)C(Oc3ccc(C#N)c(C(F)(F)F)c3)C2=O)c1 (racemic) [Example 25, (±)-3-[3-(4-Cyano-3-trifluoromethyl-phenoxy)-4,4-dimethyl-2-oxo-pyrrolidin-1-ylmethyl]-benzoic acid methyl ester]
IC50 (hAR; [2]): 48 nM | IC50 (androgen receptor; read-out: IC50): 107 nM

C[C@@H](c1ccc(F)cc1)N1CC(C)(C)[C@@H](Oc2ccc(C#N)c(C(F)(F)F)c2)C1=O (racemic) [Example 71, (±)-4-{1-[1-(4-Fluoro-phenyl)-ethyl]-4,4-dimethyl-2-oxo-pyrrolidin-3-yloxy}-2-trifluoromethyl-benzonitrile]
IC50 (hAR; [1]): 104 nM | IC50 (androgen receptor): 6 nM

CCCC(C)N1CC(C)(C)C(Oc2ccc(C#N)c(C(F)(F)F)c2)C1=O (racemic) [Example 72, (±)-4-[4,4-Dimethyl-1-(1-methyl-butyl)-2-oxo-pyrrolidin-3-yloxy]-2-trifluoromethyl-benzonitrile]
IC50 (hAR; [2]): 203 nM | IC50 (androgen receptor): 7 nM

CC1(C)CN(Cc2ccc(O)cc2)C(=O)C1Oc1ccc(C#N)c(C(F)(F)F)c1 (single isomer, unassigned) [Example 9, 4-[1-(4-Hydroxy-benzyl)-4,4-dimethyl-2-oxo-pyrrolidin-3-yloxy]-2-trifluoromethyl-benzonitrile]
IC50 (hAR; [2]): 18 nM | IC50 (androgen receptor): 46 nM

CC1(C)CN(S(C)(=O)=O)C(=O)C1Oc1ccc(C#N)c(C(F)(F)F)c1 (single isomer, unassigned) [Example 100, 4-(1-Methanesulfonyl-4,4-dimethyl-2-oxo-pyrrolidin-3-yloxy)-2-trifluoromethyl-benzonitrile]
IC50 (hAR; [2]): 12 nM | IC50 (androgen receptor): 12 nM

CSCN1CC(C)(C)C(Oc2ccc(C#N)c(C(F)(F)F)c2)C1=O (single isomer, unassigned) [Example 100B, 4-(4,4-Dimethyl-1-methylsulfanylmethyl-2-oxo-pyrrolidin-3-yloxy)-2-trifluoromethyl-benzonitrile]
IC50 (hAR; [2]): 76 nM | IC50 (androgen receptor): 24 nM

CC1(C)CN(S(=O)(=O)C2CC2)C(=O)C1Oc1ccc(C#N)c(C(F)(F)F)c1 (single isomer, unassigned) [Example 100C, 4-(1-Cyclopropanesulfonyl-4,4-dimethyl-2-oxo-pyrrolidin-3-yloxy)-2-trifluoromethyl-benzonitrile]
IC50 (hAR; [2]): 59 nM | IC50 (androgen receptor): 38 nM

CC1(C)CN(Cc2ccccc2)C(=O)C1Oc1ccc(C#N)c(C(F)(F)F)c1 (single isomer, unassigned; (+)) [Example 6, (+)-4-(1-Benzyl-4,4-dimethyl-2-oxo-pyrrolidin-3-yloxy)-2-trifluoromethyl-benzonitrile]
IC50 (hAR; [2]): 31 nM | IC50 (androgen receptor): 136 nM

CC1(C)CN(Cc2cccc(O)c2)C(=O)C1Oc1ccc(C#N)c(C(F)(F)F)c1 (single isomer, unassigned; (+)) [Example 14, (+)-4-[1-(3-Hydroxy-benzyl)-4,4-dimethyl-2-oxo-pyrrolidin-3-yloxy]-2-trifluoromethyl-benzonitrile]
IC50 (hAR; [2]): 23 nM | IC50 (androgen receptor): 99 nM

COc1cccc(C(C)N2CC(C)(C)C(Oc3ccc(C#N)c(C(F)(F)F)c3)C2=O)c1 (single isomer, unassigned; (+)) [Example 23, (+)-4-{1-[1-(3-Methoxy-phenyl)-ethyl]-4,4-dimethyl-2-oxo-pyrrolidin-3-yloxy}-2-trifluoromethyl-benzonitrile]
IC50 (hAR; [2]): 64 nM | IC50 (androgen receptor): 58 nM

CC1(C)CN(S(C)(=O)=O)C(=O)C1Oc1ccc(C#N)c(C(F)(F)F)c1 (single isomer, unassigned; (+)) [Example 96, (+)-4-(1-Methanesulfonyl-4,4-dimethyl-2-oxo-pyrrolidin-3-yloxy)-2-trifluoromethyl-benzonitrile]
IC50 (hAR; concentration at which one half of maximum binding of 1 nM 3H-DHT to hAR is inhibited): 12 nM | IC50 (androgen receptor): 36 nM

Source: patent publication US7674819B2 (Warner-Lambert Company LLC, priority 2005, dated 2010)
